# Article PMC11012124, “Synthesis of Novel Triazine-Based Chalcones and 8,9-dihydro-7H-pyrimido[4,5-b][1,4]diazepines as Potential Leads in the Search of Anticancer, Antibacterial and Antifungal Agents” (International Journal of Molecular Sciences, 2024)
# Tests used:
# 60 cancer cell lines = assay: NCI-60 one-dose screen (10 μM); type: cell-based; details: Homo sapiens; one dose of 10 μM, mean over 60 cancer cell lines; read-out: Mean Growth Percent (MGP)
# Excerpt: Additionally, the mean of the growth percentages (MGP) of each compound against all the 60 cancer cell lines is also reported, which is used as one of the selection criteria to continue with tests at five concentration doses.
# [1] = Hemolytic activity, spectrophotometric; type: cell-based, human; details: human, human red blood cells (huRBC), 5% hematocrit, 200 μg/mL, 37 °C
# CCRF-CEM = assay: cells; details: Homo sapiens, 48 h
# HL-60(TB) = assay: cells; details: Homo sapiens, HL-60, 48 h
# K-562 = assay: cells; details: Homo sapiens, K562, 48 h
# MOLT-4 = assay: cells; details: Homo sapiens, MOLT-4, 48 h
# RPMI-8226 = assay: cells; details: Homo sapiens, RPMI-8226, 48 h
# A549/ATCC = assay: cells; details: Homo sapiens, A549, 48 h
# EKVX = assay: cells; details: Homo sapiens, 48 h
# HOP-92 = assay: cells; details: Homo sapiens, HOP-92, 48 h
# NCI-H226 = assay: cells; details: Homo sapiens, NCI-H226, 48 h
# NCI-H23 = assay: cells; details: Homo sapiens, NCI-H23, 48 h
# NCI-H460 = assay: cells; details: Homo sapiens, NCI-H460, 48 h
# HCC-2998 = assay: cells; details: Homo sapiens, HCC 2998, 48 h
# HCT-116 = assay: cells; details: Homo sapiens, HCT-116, 48 h
# SW-620 = assay: cells; details: Homo sapiens, SW-620, 48 h
# SF-539 = assay: cells; details: Homo sapiens, SF-539, 48 h
# LOX IMVI = assay: cells; details: Homo sapiens, 48 h
# MALME-3M = assay: cells; details: Homo sapiens, 48 h
# M14 = assay: cells; details: Homo sapiens, M14, 48 h
# MDA-MB-435 = assay: cells; details: Homo sapiens, MDA-MB-435, 48 h
# SK-MEL-28 = assay: cells; details: Homo sapiens, SK-MEL-28, 48 h
# UACC-257 = assay: cells; details: Homo sapiens, UACC-257, 48 h
# IGROV1 = assay: cells; details: Homo sapiens, IGROV-1, 48 h
# OVCAR-5 = assay: cells; details: Homo sapiens, OVCAR-5, 48 h
# OVCAR-8 = assay: cells; details: Homo sapiens, OVCAR-8, 48 h
# SK-OV-3 = assay: cells; details: Homo sapiens, SK-OV-3, 48 h
# A498 = assay: cells; details: Homo sapiens, A498, 48 h
# ACHN = assay: cells; details: Homo sapiens, 48 h
# RXF 393 = assay: cells; details: Homo sapiens, RXF 393, 48 h
# SN12C = assay: cells; details: Homo sapiens, 48 h
# TK-10 = assay: cells; details: Homo sapiens, TK-10, 48 h
# PC-3 = assay: cells; details: Homo sapiens, PC-3, 48 h
# MCF7 = assay: cells; details: Homo sapiens, MCF7, 48 h
# MDA-MB-231/ATCC = assay: cells; details: Homo sapiens, MDA-MB-231, 48 h
# HS 578T = assay: cells; details: Homo sapiens, 48 h
# BT-549 = assay: cells; details: Homo sapiens, BT-549, 48 h
smiles,measurement,setting,value
CN(C)c1nc(NCCNS(=O)(=O)c2ccc(C3=Nc4c(N)nc(N)nc4NC(c4ccc(C(F)(F)F)cc4)C3)cc2)nc(N2CCOCC2)n1 (stereo not drawn) [30g],activity at 10 µM,60 cancer cell lines,38.8%
same,"hemolysis at 24 h, 200 µg/mL",[1],2.4%
same,GI50,CCRF-CEM,25.9 µM
same,CC50,CCRF-CEM; read-out: LC50,> 100 µM
same,GI50,HL-60(TB),27.5 µM
same,CC50,HL-60(TB); read-out: LC50,> 100 µM
same,GI50,"K-562; K-562, 48 h",29.1 µM
same,CC50,K-562; read-out: LC50,> 100 µM
same,GI50,MOLT-4,17.3 µM
same,CC50,MOLT-4; read-out: LC50,> 100 µM
same,GI50,RPMI-8226,11.2 µM
same,CC50,RPMI-8226; read-out: LC50,> 100 µM
same,GI50,A549/ATCC,51.3 µM
same,CC50,A549/ATCC; read-out: LC50,> 100 µM
same,GI50,EKVX,47.2 µM
same,CC50,EKVX; read-out: LC50,> 100 µM
same,GI50,HOP-92,7.48 µM
same,CC50,HOP-92; read-out: LC50,> 100 µM
same,GI50,NCI-H226,17.6 µM
same,CC50,NCI-H226; read-out: LC50,> 100 µM
same,GI50,NCI-H23,37.6 µM
same,CC50,NCI-H23; read-out: LC50,> 100 µM
same,GI50,NCI-H460,36.5 µM
same,CC50,NCI-H460; read-out: LC50,> 100 µM
same,GI50,HCC-2998,20.2 µM
same,CC50,HCC-2998; read-out: LC50,> 100 µM
same,GI50,HCT-116,41.9 µM
same,CC50,HCT-116; read-out: LC50,> 100 µM
same,GI50,SW-620,46.9 µM
same,CC50,SW-620; read-out: LC50,> 100 µM
same,GI50,SF-539,22.5 µM
same,CC50,"SF-539; read-out: LC50, SF-539, 48 h",> 100 µM
same,GI50,LOX IMVI,17.1 µM
same,CC50,"LOX IMVI; read-out: LC50, LOX IMVI, 48 h",64.1 µM
same,GI50,MALME-3M,19.9 µM
same,CC50,MALME-3M; read-out: LC50,> 100 µM
same,GI50,M14,22 µM
same,CC50,M14; read-out: LC50,> 100 µM
same,GI50,MDA-MB-435,34.2 µM
same,CC50,MDA-MB-435; read-out: LC50,> 100 µM
same,GI50,SK-MEL-28,34.1 µM
same,CC50,SK-MEL-28; read-out: LC50,> 100 µM
same,GI50,UACC-257,20.4 µM
same,CC50,UACC-257; read-out: LC50,> 100 µM
same,GI50,IGROV1,27 µM
same,CC50,IGROV1; read-out: LC50,> 100 µM
same,GI50,OVCAR-5,27 µM
same,CC50,OVCAR-5; read-out: LC50,> 100 µM
same,GI50,OVCAR-8,59.5 µM
same,CC50,OVCAR-8; read-out: LC50,> 100 µM
same,GI50,SK-OV-3,69.7 µM
same,CC50,SK-OV-3; read-out: LC50,> 100 µM
same,GI50,A498,24.1 µM
same,CC50,A498; read-out: LC50,> 100 µM
same,GI50,ACHN,64.4 µM
same,CC50,ACHN; read-out: LC50,> 100 µM
same,GI50,RXF 393,10.3 µM
same,CC50,RXF 393; read-out: LC50,> 100 µM
same,GI50,SN12C,35.7 µM
same,CC50,SN12C; read-out: LC50,> 100 µM
same,GI50,TK-10,54.3 µM
same,CC50,TK-10; read-out: LC50,> 100 µM
same,GI50,PC-3,24.6 µM
same,CC50,PC-3; read-out: LC50,> 100 µM
same,GI50,MCF7,18.1 µM
same,CC50,MCF7; read-out: LC50,> 100 µM
same,GI50,MDA-MB-231/ATCC,16.9 µM
same,CC50,MDA-MB-231/ATCC; read-out: LC50,> 100 µM
same,GI50,HS 578T,19.2 µM
same,CC50,HS 578T; read-out: LC50,> 100 µM
same,GI50,BT-549,13.8 µM
same,CC50,BT-549; read-out: LC50,73.1 µM
